Numbers after ± are expanded uncertainties.
Assay: activity coefficient (dimensionless); of the first substance listed, at infinite dilution; xn = mol fraction of the nth substance listed
Conditions: 101 kPa, Liquid, Chromatography, x1 = 0

SMILES	activity coefficient (328.15 K)	activity coefficient (338.15 K)	activity coefficient (348.15 K)	activity coefficient (358.15 K)	activity coefficient (368.15 K)	activity coefficient (308.15 K)	activity coefficient (318.15 K)
Cc1ccccc1C [1,2-dimethylbenzene] + CCCCCC[n+]1ccc2ccccc2c1.N#C[S-]	2.35 ± 0.16	2.37 ± 0.16	2.41 ± 0.16	2.43 ± 0.17	2.45 ± 0.17		
Cc1cccc(C)c1 [1,3-dimethylbenzene] + CCCCCC[n+]1ccc2ccccc2c1.N#C[S-]	2.9 ± 0.2	2.93 ± 0.2	2.96 ± 0.2	2.98 ± 0.2	3.01 ± 0.2		
Cc1ccc(C)cc1 [1,4-dimethylbenzene] + CCCCCC[n+]1ccc2ccccc2c1.N#C[S-]	2.82 ± 0.19	2.85 ± 0.19	2.88 ± 0.2	2.9 ± 0.2	2.94 ± 0.2		
C1COCCO1 [1,4-dioxane] + CCCCCC[n+]1ccc2ccccc2c1.N#C[S-]	1.23 ± 0.08	1.25 ± 0.08	1.27 ± 0.08	1.28 ± 0.08	1.31 ± 0.09		
C=CCCCCCCCC [1-decene] + CCCCCC[n+]1ccc2ccccc2c1.N#C[S-]	46.3 ± 3.2	44.2 ± 3	42.5 ± 2.9	40.5 ± 2.8	39.1 ± 2.7	50.6 ± 3.5	48.1 ± 3.3
C=CCCCCC [1-heptene] + CCCCCC[n+]1ccc2ccccc2c1.N#C[S-]	20.9 ± 1.4	19.5 ± 1.3	18.7 ± 1.3	17.7 ± 1.2	16.9 ± 1.2	23.5 ± 1.6	22 ± 1.5
C#CCCCCC [1-heptyne] + CCCCCC[n+]1ccc2ccccc2c1.N#C[S-]	4.93 ± 0.34	5.02 ± 0.34	5.09 ± 0.35	5.16 ± 0.35	5.21 ± 0.36	4.77 ± 0.33	4.85 ± 0.33
C#CCCCC [1-hexyne] + CCCCCC[n+]1ccc2ccccc2c1.N#C[S-]	3.71 ± 0.25	3.78 ± 0.26	3.83 ± 0.26	3.9 ± 0.27	3.96 ± 0.27	3.57 ± 0.24	3.64 ± 0.25
CCC[N+](=O)[O-] [1-nitropropane] + CCCCCC[n+]1ccc2ccccc2c1.N#C[S-]	1.39 ± 0.09	1.38 ± 0.09	1.37 ± 0.09	1.37 ± 0.09	1.35 ± 0.09		
C#CCCCCCC [1-octyne] + CCCCCC[n+]1ccc2ccccc2c1.N#C[S-]	6.52 ± 0.44	6.64 ± 0.45	6.71 ± 0.46	6.8 ± 0.46	6.87 ± 0.47	6.31 ± 0.43	6.43 ± 0.44
C=CCCC [1-pentene] + CCCCCC[n+]1ccc2ccccc2c1.N#C[S-]	14.5 ± 1	12.9 ± 0.9	11.7 ± 0.8	10.7 ± 0.7	9.6 ± 0.7	18.4 ± 1.3	16.2 ± 1.1
C#CCCC [1-pentyne] + CCCCCC[n+]1ccc2ccccc2c1.N#C[S-]	2.91 ± 0.2	2.97 ± 0.2	3.03 ± 0.21	3.07 ± 0.21	3.14 ± 0.21	2.79 ± 0.19	2.85 ± 0.19
CC(C)CC(C)(C)C [2,2,4-trimethylpentane] + CCCCCC[n+]1ccc2ccccc2c1.N#C[S-]	68.6 ± 4.7	57.7 ± 4	50.8 ± 3.5	44.5 ± 3	39.1 ± 2.7	96.5 ± 6.6	79.7 ± 5.5
CCC(C)(C)C [2,2-dimethylbutane] + CCCCCC[n+]1ccc2ccccc2c1.N#C[S-]	57.2 ± 3.9	45.5 ± 3.1	37.9 ± 2.6	31.2 ± 2.1	25.6 ± 1.8	91.5 ± 6.3	72.2 ± 4.9
CCOC(C)(C)C [2-ethoxy-2-methylpropane] + CCCCCC[n+]1ccc2ccccc2c1.N#C[S-]	17.2 ± 1.2	15.7 ± 1.1	14.7 ± 1	13.8 ± 0.9	12.8 ± 0.9	20.6 ± 1.4	18.6 ± 1.3
CCCCC(C)=O [2-hexanone] + CCCCCC[n+]1ccc2ccccc2c1.N#C[S-]	2.62 ± 0.18	2.63 ± 0.18	2.64 ± 0.18	2.65 ± 0.18	2.65 ± 0.18		
CCC(C)(C)OC [2-methoxy-2-methylbutane] + CCCCCC[n+]1ccc2ccccc2c1.N#C[S-]	9.01 ± 0.61	8.58 ± 0.59	8.36 ± 0.57	8.13 ± 0.55	7.85 ± 0.54	9.8 ± 0.67	9.34 ± 0.64
COC(C)(C)C [2-methoxy-2-methylpropane] + CCCCCC[n+]1ccc2ccccc2c1.N#C[S-]	7.65 ± 0.52	7.18 ± 0.49	6.99 ± 0.48	6.61 ± 0.45	6.28 ± 0.43	8.61 ± 0.59	8.13 ± 0.55
CCCC(=O)CC [3-hexanone] + CCCCCC[n+]1ccc2ccccc2c1.N#C[S-]	2.86 ± 0.19	2.88 ± 0.2	2.89 ± 0.2	2.9 ± 0.2	2.91 ± 0.2		
CCC(C)CC [3-methylpentane] + CCCCCC[n+]1ccc2ccccc2c1.N#C[S-]	37.8 ± 2.6	31.9 ± 2.2	27.9 ± 1.9	24.7 ± 1.7	21.5 ± 1.5	52.3 ± 3.6	43.4 ± 3
CC(C)=O [acetone] + CCCCCC[n+]1ccc2ccccc2c1.N#C[S-]	1.33 ± 0.09	1.31 ± 0.09	1.3 ± 0.08	1.3 ± 0.08	1.28 ± 0.08		
CC#N [acetonitrile] + CCCCCC[n+]1ccc2ccccc2c1.N#C[S-]	1.02 ± 0.06	1.01 ± 0.06	1 ± 0.06	0.994 ± 0.062	0.982 ± 0.062		
c1ccccc1 [benzene] + CCCCCC[n+]1ccc2ccccc2c1.N#C[S-]	1.47 ± 0.1	1.48 ± 0.1	1.48 ± 0.1	1.48 ± 0.1	1.49 ± 0.1		
CCCCO [butan-1-ol] + CCCCCC[n+]1ccc2ccccc2c1.N#C[S-]	0.846 ± 0.054	0.829 ± 0.053	0.812 ± 0.053	0.802 ± 0.052	0.788 ± 0.051		
C1CCCCCC1 [cycloheptane] + CCCCCC[n+]1ccc2ccccc2c1.N#C[S-]	14.5 ± 1	13.4 ± 0.9	12.6 ± 0.9	11.9 ± 0.8	11.3 ± 0.8	17 ± 1.2	15.8 ± 1.1
C1CCCCC1 [cyclohexane] + CCCCCC[n+]1ccc2ccccc2c1.N#C[S-]	13.3 ± 0.9	12.4 ± 0.8	11.6 ± 0.8	10.8 ± 0.7	10.2 ± 0.7	15.4 ± 1.1	14.2 ± 1

Reference: the NIST ThermoML archive (doi:10.1016/j.jct.2013.02.004)
